13 compounds from ChEMBL document CHEMBL1157528, “Mixed tetraoxanes containing the acetone subunit as antimalarials” (Bioorg Med Chem, 2008) can be followed below.

Calls of active or inactive are those of the source. A value given as a limit tells only on which side of the number the result lay.

Series [1] has as its system Plasmodium berghei. As to the kind of experiment: Antimalarial activity as parasite-free survivors at day 31 of Plasmodium berghei KBG173 infected CD1 mice (Mus musculus) at 320 mg/kg/day peroral dose. It counts as functional, organism-based.
Series [2] concerns Plasmodium falciparum. As to the kind of experiment: microbe, parasite or virus in culture. The settings on record: TM91C235.
Description: Antimalarial activity against mefloquine, chloroquine and quinine-resistant Plasmodium falciparum TM91C235
The subject of series [3] is Plasmodium berghei. As to the kind of experiment: Antimalarial activity as survival time in Plasmodium berghei KBG173 infected CD1 mice (Mus musculus) at 320 mg/kg/day peroral dose. In kind it is functional. The settings on record: route oral.
The test system of series [4] is Plasmodium falciparum. Description: microbe, parasite or virus in culture. The settings on record: W2.
Description: Antimalarial activity against chloroquine and pyrimethamine-resistant Plasmodium falciparum W2
The test system of series [5] is Plasmodium falciparum. As to the kind of experiment: microbe, parasite or virus in culture. The conditions noted are these: D6.
Description: Antimalarial activity against chloroquine and pyrimethamine-sensitive Plasmodium falciparum D6
The test system of series [6] is Plasmodium berghei. Description: Antimalarial activity as survival time in Plasmodium berghei KBG173 infected CD1 mice (Mus musculus) at 20 mg/kg/day peroral dose. It counts as functional. The settings on record: route oral.
The test system of series [7] is Plasmodium berghei. Description: Antimalarial activity as survival time against Plasmodium berghei KBG173 infected CD1 mice (Mus musculus) at 80 mg/kg/day peroral dose 3 - 5 days post infection. It counts as functional. The conditions noted are these: route oral.
Series [8] concerns Plasmodium berghei. As to the kind of experiment: Antimalarial activity as parasite-free survivors at day 31 of Plasmodium berghei KBG173 infected CD1 mice (Mus musculus) at 20 mg/kg/day peroral dose. In kind it is functional, organism-based.
Series [9] has as its system Plasmodium falciparum. Description: microbe, parasite or virus in culture. The conditions noted are these: RCS.
Description: Antimalarial activity against chloroquine-resistant, mefloquine-sensitive Plasmodium falciparum RCS
The test system of series [10] is Plasmodium falciparum. Description: Relative activity against Plasmodium falciparum TM91C235 as fold-lower IC90/IC50 ratio relative to mefloquine.
For series [11], the system named is Plasmodium falciparum. Description: Relative activity against Plasmodium falciparum W2 as ratio of IC90 to IC50. It counts as functional.
Series [12] can be described thus: Metabolic stability in mouse liver microsomes assessed as half life at 10 uM. In kind it is ADME, Microsome.
Series [13] can be described thus: Metabolic stability in human liver microsomes assessed as half life at 10 uM. In kind it is ADME, Microsome. In general terms: Liver microsomes are vesicles of endoplasmic reticulum, rich in cytochrome P450 enzymes.
A short description of series [14]: Cytotoxicity against human NCI60 cells. It counts as functional.
The next series deals with A498. Description: Antiproliferative activity against human A498 cells. It counts as functional.

Usually IC50 stands for the concentration needed to halve the response being measured. A word on the IC90: it is the point of the concentration-response curve where the effect stands at 90%. A low value points to greater potency. On to `COC(=O)CC[C@@H](C)[C@H]1CC[C@H]2[C@@H]3[C@H](OC(C)=O)C[C@@H]4CC5(CC[C@]4(C)[C@H]3C[C@H](OC(C)=O)[C@]12C)OOC(C)(C)OO5`, for which the result in the series on Plasmodium berghei [1] and in the series on Plasmodium berghei [8] was inactive. In addition, the IC50 turned out to be 26 nM in the series on Plasmodium falciparum [2], 11.7 nM in the series on Plasmodium falciparum [4] and 15 nM in the series with Plasmodium falciparum [5]. Further, the IC90 with Plasmodium falciparum [2] was found to be 57.3 nM; with Plasmodium falciparum [4], 20.7 nM; in the series with Plasmodium falciparum [5], 26.7 nM. Moreover, the Survival in the series with Plasmodium berghei [3] stood at 18 days; with Plasmodium berghei [6], 13 days; with Plasmodium berghei [7], 16 days.
For the compound `O[C@@H](c1cc(C(F)(F)F)nc2c(C(F)(F)F)cccc12)[C@H]1CCCCN1` [MEFLOQUINE], in the series on Plasmodium falciparum [9], the midpoint of inhibition, the IC50, lay at 2.33 nM and the 90% effect level (IC90) was put at 5 nM. The “fold-lower IC90/IC50 ratio vs mefloquine” value with Plasmodium falciparum [10] was 1.5. Moreover, the Ratio in the series with Plasmodium falciparum [11] was determined as 1.71.
A word on the half-life: it is the time needed for the level to fall by half in the phase considered. `CCCNC(=O)CC[C@@H](C)[C@H]1CC[C@H]2[C@@H]3[C@H](OC(C)=O)C[C@@H]4CC5(CC[C@]4(C)[C@H]3C[C@H](OC(C)=O)[C@]12C)OOC(C)(C)OO5`: the IC50 was determined as 18.1 nM in the series with Plasmodium falciparum [4] and 7.4 nM in the series on Plasmodium falciparum [5]. In addition, the figures for the IC90 in the series on Plasmodium falciparum [4] and with Plasmodium falciparum [5] were 29.2 nM and 16.2 nM, respectively. In addition, the values for the half-life at 10 µM in series [12] and in series [13] were 25 min and 24 min, respectively.
One may read the GI50 as the concentration that inhibits growth by half. A high value points to less potent growth inhibition. One may read the LC50 as the concentration lethal to half of the exposed cells or organisms. A low value points to a more lethal substance. What is called TGI is the concentration at which net growth stops. For the compound `CNC(=O)CC[C@@H](C)[C@H]1CC[C@H]2[C@@H]3[C@H](OC(C)=O)C[C@@H]4CC5(CC[C@]4(C)[C@H]3C[C@H](OC(C)=O)[C@]12C)OOC(C)(C)OO5`, the IC50 was 31.3 nM in the series with Plasmodium falciparum [2], 18.1 nM with Plasmodium falciparum [4], 11.6 nM in the series with Plasmodium falciparum [9] and 46.9 nM in the series with Plasmodium falciparum [5]. Also, the IC90 in the series with Plasmodium falciparum [2] stood at 74.8 nM; in the series on Plasmodium falciparum [4], 20.7 nM; with Plasmodium falciparum [9], 22.3 nM; in the series with Plasmodium falciparum [5] it was 78.3 nM. For the same compound, the half-life at 10 µM in [12] and in series [13] was over 60 min each time. For the same compound, the GI50 in series [14] was found to be 4.47 µM. The compound further had an LC50 in series [14] of 47.9 µM. Total growth inhibition in series [14] (TGI) required 18.2 µM.
Turning to `CCN(CC)CCCC(C)Nc1ccnc2cc(Cl)ccc12` (stereo not drawn) [CHLOROQUINE], the IC90 amounted to 397 nM in the series on Plasmodium falciparum [9] and 17.6 nM in the series with Plasmodium falciparum [5].
As for `CC(=O)O[C@H]1C[C@H]2[C@@H]([C@H](OC(C)=O)C[C@@H]3CC4(CC[C@@]32C)OOC(C)(C)OO4)[C@@H]2CC[C@H]([C@H](C)CCC(=O)O)[C@@]12C`, the result in the series with Plasmodium berghei [1] and in the series with Plasmodium berghei [8] was inactive. Moreover, the IC50 in the series with Plasmodium falciparum [2] was 60.4 nM; with Plasmodium falciparum [4], 36 nM; with Plasmodium falciparum [5], 46.5 nM. The IC90 in the series with Plasmodium falciparum [2] was 231 nM; with Plasmodium falciparum [4] it was 94.7 nM; in the series with Plasmodium falciparum [5] it was 96.3 nM. In addition, the Survival in the series with Plasmodium berghei [3] turned out to be 17 days; with Plasmodium berghei [6] it was 10 days; with Plasmodium berghei [7], 15 days. Besides, the half-life at 10 µM in series [12] and in series [13] was over 60 min throughout. In series [14], this compound registered a GI50 of 15.5 µM. Moreover, the LC50 in series [14] turned out to be 75.9 µM. The same compound registered a TGI in series [14] of 37.1 µM.
Turning to `C[C@H](CCC(N)=O)[C@H]1CC[C@H]2[C@@H]3[C@H](O)C[C@@H]4CC5(CC[C@]4(C)[C@H]3C[C@H](O)[C@]12C)OOC(C)(C)OO5`, the GI50 in the series with A498 was 92 nM; in series [14] it was 0.98 µM. Also, the TGI in the series on A498 was found to be 710 nM; in series [14], 3.8 µM. In addition, the CC50 in the series with A498 (read-out: LC50 (the source's name)) was 11.5 µM. For the same compound, the IC50 with Plasmodium falciparum [2] came to 228 nM; with Plasmodium falciparum [4], 153 nM; in the series on Plasmodium falciparum [9] it was 38.7 nM; in the series with Plasmodium falciparum [5] it was 215 nM. In addition, the concentration for an effect of 90% (IC90) in the series with Plasmodium falciparum [2] stood at 498 nM; with Plasmodium falciparum [4], 234 nM; in the series on Plasmodium falciparum [9] it was 168 nM; with Plasmodium falciparum [5], 347 nM. Moreover, the half-life at 10 µM in [12] and in [13] was over 60 min in each case. The compound further showed an LC50 in [14] of 11.2 µM.
Take `CC(=O)O[C@H]1C[C@H]2[C@@H]([C@H](OC(C)=O)C[C@@H]3CC4(CC[C@@]32C)OOC(C)(C)OO4)[C@@H]2CC[C@H]([C@H](C)CCC(=O)Nc3ccccc3)[C@@]12C`: the IC50 with Plasmodium falciparum [2] is 15.8 nM; in the series with Plasmodium falciparum [4], 5.02 nM; with Plasmodium falciparum [9], 1.89 nM; with Plasmodium falciparum [5] it was 6.97 nM. Also, the IC90 worked out at 20.9 nM with Plasmodium falciparum [2], 14.3 nM with Plasmodium falciparum [4], 4.45 nM with Plasmodium falciparum [9] and 20.8 nM in the series with Plasmodium falciparum [5]. The Survival with Plasmodium berghei [3] came to 23 days; in the series on Plasmodium berghei [6], 23 days; with Plasmodium berghei [7], 25 days. Moreover, the half-life at 10 µM is 16 min in [12] and 19 min in series [13]. Also, the “fold-lower IC90/IC50 ratio vs mefloquine” value in the series with Plasmodium falciparum [10] is on record as 3.
For the compound `CC(=O)O[C@H]1C[C@H]2[C@@H]([C@H](OC(C)=O)C[C@@H]3CC4(CC[C@@]32C)OOC(C)(C)OO4)[C@@H]2CC[C@H]([C@H](C)CCC(=O)NN)[C@@]12C`, the IC50 is 28.5 nM with Plasmodium falciparum [2], 16.4 nM in the series with Plasmodium falciparum [4], 7.03 nM in the series with Plasmodium falciparum [9] and 28.1 nM in the series with Plasmodium falciparum [5]. For the same compound, the IC90 with Plasmodium falciparum [2] came to 38.1 nM; with Plasmodium falciparum [4], 22.9 nM; in the series on Plasmodium falciparum [9], 19.5 nM; in the series with Plasmodium falciparum [5], 46.3 nM.
Take `C[C@@H]1CC[C@H]2[C@@H](C)C(=O)O[C@@H]3O[C@@]4(C)CC[C@@H]1[C@]32OO4` [ARTEMISININ]: the IC90 in the series with Plasmodium falciparum [2] turned out to be 13 nM; in the series with Plasmodium falciparum [4] it was 11.5 nM; in the series on Plasmodium falciparum [9], 13 nM; in the series with Plasmodium falciparum [5], 12.8 nM. The IC50 in the series on Plasmodium falciparum [4] came out at 6.7 nM; in the series with Plasmodium falciparum [5], 9 nM.
With `CC(=O)O[C@H]1C[C@H]2[C@@H]([C@H](OC(C)=O)C[C@@H]3CC4(CC[C@@]32C)OOC(C)(C)OO4)[C@@H]2CC[C@H]([C@H](C)CCC(=O)N(C)C)[C@@]12C`, the IC50 in the series with Plasmodium falciparum [2] came out at 25.1 nM; in the series with Plasmodium falciparum [4], 17.3 nM; in the series on Plasmodium falciparum [9], 7.19 nM; in the series on Plasmodium falciparum [5] it was 35.5 nM. The 90% effect concentration (IC90) was found to be 50.9 nM in the series on Plasmodium falciparum [2], 31.6 nM in the series with Plasmodium falciparum [4], 14 nM with Plasmodium falciparum [9] and 71.5 nM in the series on Plasmodium falciparum [5]. For the same compound, the half-life at 10 µM in series [12] came to 17 min; in series [13], 49 min. In series [14], the GI50 is 17 µM. Further, the LC50 in series [14] stood at 75.9 µM. Further, in series [14], the TGI came to 41.7 µM.
Turning to `CC(=O)O[C@H]1C[C@H]2[C@@H]([C@H](OC(C)=O)C[C@@H]3CC4(CC[C@@]32C)OOC(C)(C)OO4)[C@@H]2CC[C@H]([C@H](C)CCC(N)=O)[C@@]12C`, in the series on Plasmodium falciparum [4], half-maximal inhibition (IC50) required 9.4 nM. Besides, the half-life at 10 µM in series [12] was over 60 min. Also, the half-life at 10 µM in series [13] was over 60 min. In series [14], this compound yielded a GI50 of 8.71 µM, an LC50 of 79.4 µM and a TGI of 34.7 µM. This compound also returned an IC50 in the series with Plasmodium falciparum [5] of 12.2 nM.
On to `COC(=O)CNC(=O)CC[C@@H](C)[C@H]1CC[C@H]2[C@@H]3[C@H](OC(C)=O)C[C@@H]4CC5(CC[C@]4(C)[C@H]3C[C@H](OC(C)=O)[C@]12C)OOC(C)(C)OO5`, for which the IC50 with Plasmodium falciparum [4] came to 5.98 nM. Moreover, in series [12], the half-life at 10 µM is 32 min. Moreover, the half-life at 10 µM in series [13] stood at 70 min. In series [14], this compound had a GI50 of 8.51 µM, an LC50 of 77.6 µM and a TGI of 33.9 µM. For the same compound, the IC50 in the series on Plasmodium falciparum [5] worked out at 14.3 nM.
